Measurements taken from patent US6984486B1, “Synthetic peptide of regulatory virus protein R (VPR) of human immunodeficiency virus type 1 (HIV-1) and the utilization thereof” (J. David Gladstone Institutes, priority 1999, dated 2006).

How the values were obtained:
[1] = tested on: HIV-1NL4-3; conditions: cultures of human PBMC, 10 nM peptide
Text: (§1) Cultures of PHA- and IL-2-activated PBMCs were infected with equal infectious doses of the following virus stocks: HIV-1NL4-3 (A, B, C), NL4-3(AD8) (D) as well as the vpu-deficient mutant NL(AD8)-UDEL1 (E), and the vpr-deficient mutant NL(AD8)deltaR (F).

[2] = tested on: human PBMC; conditions: cultures of human PBMC infected with HIV-1NL4-3, 10 nM peptide
Text: as §1

[3] = compared with native viral Vpr
[4] = tested on: vpr deficient HIV-1 mutant viruses; conditions: primary human monocytes/macrophages from different donors, vpr-deficient mutant NL(AD8)deltaR, two months
Text: Parallel cultures of differentiated MDM isolated from three different donors were infected with equal infectious doses of purified virus stocks of the macrophage-tropic virus NL4-3(AD8) as well as the vpr-deficient mutant NL(AD8)deltaR. Virus production was followed over a time frame of two months and release of virus associated RT-activity was plotted against time.

## H-Met-Glu-Gln-Ala-Pro-Glu-Asp-Gln-Gly-Pro-Gln-Arg-Glu-Pro-Tyr-Asn-Gln-Trp-Thr-Leu-Glu-Leu-Leu-Glu-Glu-Leu-Lys-Ser-Glu-Ala-Val-Arg-His-Phe-Pro-Arg-Ile-Trp-Leu-His-Asn-Leu-Gly-Gln-His-Ile-Tyr-Glu-Thr-Tyr-Gly-Asp-Thr-Trp-Ala-Gly-Val-Glu-Ala-Ile-Ile-Arg-Ile-Leu-Gln-Gln-Leu-Leu-Phe-Ile-His-Phe-Arg-Ile-Gly-Cys-Arg-His-Ser-Arg-Ile-Gly-Val-Thr-Arg-Gln-Arg-Arg-Ala-Arg-Asn-Gly-Ala-Ser-Arg-Set-OH [sVpr^1-96]
[1]
  virus replication (virus associated RT-activity released into cell culture supernatant): activates virus replication
[2]
  number of live cells: increases the number of live cells
[3]
  biological activities: comparable to native viral Vpr
[4]
  virus replication (release of virus associated RT-activity): activates virus replication
